Experimental data published in ChEMBL document CHEMBL3808342, “Discovery and optimization of a novel series of highly CNS penetrant M4 PAMs based on a 5,6-dimethyl-4-(piperidin-1-yl)thieno[2,3-d]pyrimidine core” (Bioorg Med Chem Lett, 2016).
Calls of active or inactive are those of the source. The rule behind the calls is not given here.

What was measured:
[1] = Fraction unbound in human plasma; format: ADME, cell-free
[2] = biological target: T1, Muscarinic acetylcholine receptor M4 (Rattus norvegicus) (UniProt P08485); test: Positive allosteric modulation of rat M4 receptor expressed in CHO cells coexpressing Gqi5 by calcium mobilization assay relative to acetylcholine; format: functional, cell-based
T1 sequence (whole entry): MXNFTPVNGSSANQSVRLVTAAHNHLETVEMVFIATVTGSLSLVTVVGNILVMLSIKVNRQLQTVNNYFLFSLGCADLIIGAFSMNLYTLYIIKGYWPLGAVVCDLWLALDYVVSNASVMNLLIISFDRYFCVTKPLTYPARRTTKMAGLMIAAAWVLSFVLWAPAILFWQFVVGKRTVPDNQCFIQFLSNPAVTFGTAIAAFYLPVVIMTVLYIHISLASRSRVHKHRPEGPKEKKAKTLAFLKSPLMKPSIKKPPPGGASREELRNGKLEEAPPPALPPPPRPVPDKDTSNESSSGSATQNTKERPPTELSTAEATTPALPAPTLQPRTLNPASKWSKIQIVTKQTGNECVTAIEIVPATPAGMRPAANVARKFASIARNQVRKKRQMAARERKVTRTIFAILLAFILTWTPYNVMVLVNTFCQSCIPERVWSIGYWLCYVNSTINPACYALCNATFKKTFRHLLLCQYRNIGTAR

[3] = biological target: Cytochrome P450 2C9 (Homo sapiens, UniProt P11712); test: Inhibition of CYP2C9 (unknown origin); format: ADME
Sequence of Cytochrome P450 2C9 (P11712 whole entry): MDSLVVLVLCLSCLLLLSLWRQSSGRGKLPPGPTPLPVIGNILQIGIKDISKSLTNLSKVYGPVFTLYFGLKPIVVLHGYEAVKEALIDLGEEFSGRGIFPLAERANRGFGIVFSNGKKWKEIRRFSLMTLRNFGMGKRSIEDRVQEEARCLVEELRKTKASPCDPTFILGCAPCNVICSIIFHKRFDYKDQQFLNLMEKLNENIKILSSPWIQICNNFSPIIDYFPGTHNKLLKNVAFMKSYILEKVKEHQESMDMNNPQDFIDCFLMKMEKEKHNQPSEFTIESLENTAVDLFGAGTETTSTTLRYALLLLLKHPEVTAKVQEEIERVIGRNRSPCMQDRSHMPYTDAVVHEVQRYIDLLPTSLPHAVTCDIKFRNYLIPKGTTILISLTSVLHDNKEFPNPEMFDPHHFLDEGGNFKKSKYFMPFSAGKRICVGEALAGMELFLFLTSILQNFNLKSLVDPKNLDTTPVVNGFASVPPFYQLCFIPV

[4] = biological target: T2, Cytochrome P450 1A2 (Homo sapiens, UniProt P05177); test: Inhibition of CYP1A2 (unknown origin); format: ADME
T2 sequence (P05177 whole entry): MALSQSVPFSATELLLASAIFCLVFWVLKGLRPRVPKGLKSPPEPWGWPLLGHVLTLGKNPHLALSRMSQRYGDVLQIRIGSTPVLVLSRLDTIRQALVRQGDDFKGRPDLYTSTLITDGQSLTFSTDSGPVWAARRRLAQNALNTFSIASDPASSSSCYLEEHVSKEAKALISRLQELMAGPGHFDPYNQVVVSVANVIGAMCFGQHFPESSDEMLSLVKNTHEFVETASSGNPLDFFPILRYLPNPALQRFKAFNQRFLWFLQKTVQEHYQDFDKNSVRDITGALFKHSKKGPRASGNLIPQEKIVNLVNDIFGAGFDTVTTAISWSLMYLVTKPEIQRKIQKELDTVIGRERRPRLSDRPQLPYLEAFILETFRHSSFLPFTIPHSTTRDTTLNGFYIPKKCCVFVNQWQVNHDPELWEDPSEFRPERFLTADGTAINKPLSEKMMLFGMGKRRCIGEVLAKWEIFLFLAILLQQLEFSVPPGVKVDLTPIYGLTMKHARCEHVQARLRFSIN

[5] = biological target: Cytochrome P450 3A4 (Homo sapiens, UniProt P08684); test: Inhibition of CYP3A4 (unknown origin); format: ADME
Sequence of Cytochrome P450 3A4 (P08684 whole entry): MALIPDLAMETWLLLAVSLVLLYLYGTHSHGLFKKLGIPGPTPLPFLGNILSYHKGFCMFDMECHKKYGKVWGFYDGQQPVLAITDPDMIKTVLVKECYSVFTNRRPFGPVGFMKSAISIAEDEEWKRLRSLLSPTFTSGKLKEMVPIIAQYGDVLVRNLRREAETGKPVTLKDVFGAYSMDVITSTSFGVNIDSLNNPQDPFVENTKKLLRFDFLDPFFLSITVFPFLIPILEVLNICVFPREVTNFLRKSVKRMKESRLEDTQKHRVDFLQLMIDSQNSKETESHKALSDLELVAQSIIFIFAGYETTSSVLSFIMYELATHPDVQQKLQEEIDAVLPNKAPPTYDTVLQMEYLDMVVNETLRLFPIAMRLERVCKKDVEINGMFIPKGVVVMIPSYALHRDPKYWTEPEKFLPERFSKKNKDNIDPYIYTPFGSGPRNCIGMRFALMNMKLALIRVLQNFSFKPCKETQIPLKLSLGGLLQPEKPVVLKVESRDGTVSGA

[6] = biological target: T3, Muscarinic acetylcholine receptor M4 (Homo sapiens) (UniProt P08173); test: Positive allosteric modulation of human M4 receptor expressed in CHO cells coexpressing Gqi5 by calcium mobilization assay relative to acetylcholine; format: functional, cell-based
T3 sequence (whole entry): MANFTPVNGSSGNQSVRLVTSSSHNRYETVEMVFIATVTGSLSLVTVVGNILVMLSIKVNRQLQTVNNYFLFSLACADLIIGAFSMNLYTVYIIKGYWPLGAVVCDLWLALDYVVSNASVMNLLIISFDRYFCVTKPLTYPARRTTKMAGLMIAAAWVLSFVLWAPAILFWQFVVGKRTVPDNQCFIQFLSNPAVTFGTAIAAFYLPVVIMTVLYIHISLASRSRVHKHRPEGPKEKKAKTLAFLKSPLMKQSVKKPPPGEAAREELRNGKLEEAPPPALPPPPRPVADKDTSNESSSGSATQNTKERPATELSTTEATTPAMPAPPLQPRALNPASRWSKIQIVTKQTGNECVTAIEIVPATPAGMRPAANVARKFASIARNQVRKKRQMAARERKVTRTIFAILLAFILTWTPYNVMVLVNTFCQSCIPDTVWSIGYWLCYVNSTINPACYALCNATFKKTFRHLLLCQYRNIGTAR

[7] = biological target: T4, Muscarinic acetylcholine receptor M4 (Homo sapiens, UniProt P08173); test: Positive allosteric modulation of human M4 receptor expressed in CHO cells coexpressing Gqi5 by calcium mobilization assay; format: functional, cell-based
T4 sequence (P08173 whole entry): T3 sequence (whole entry)

[8] = biological target: T5, Muscarinic acetylcholine receptor M4 (Rattus norvegicus, UniProt P08485); test: Positive allosteric modulation of rat M4 receptor expressed in CHO cells coexpressing Gqi5 by calcium mobilization assay; format: functional, cell-based
T5 sequence (P08485 whole entry): T1 sequence (whole entry)

[9] = Fraction unbound in rat plasma; format: ADME, cell-free
[10] = biological target: Cytochrome P450 2D6 (Homo sapiens, UniProt P10635); test: Inhibition of CYP2D6 (unknown origin); format: ADME
Sequence of Cytochrome P450 2D6 (P10635 whole entry): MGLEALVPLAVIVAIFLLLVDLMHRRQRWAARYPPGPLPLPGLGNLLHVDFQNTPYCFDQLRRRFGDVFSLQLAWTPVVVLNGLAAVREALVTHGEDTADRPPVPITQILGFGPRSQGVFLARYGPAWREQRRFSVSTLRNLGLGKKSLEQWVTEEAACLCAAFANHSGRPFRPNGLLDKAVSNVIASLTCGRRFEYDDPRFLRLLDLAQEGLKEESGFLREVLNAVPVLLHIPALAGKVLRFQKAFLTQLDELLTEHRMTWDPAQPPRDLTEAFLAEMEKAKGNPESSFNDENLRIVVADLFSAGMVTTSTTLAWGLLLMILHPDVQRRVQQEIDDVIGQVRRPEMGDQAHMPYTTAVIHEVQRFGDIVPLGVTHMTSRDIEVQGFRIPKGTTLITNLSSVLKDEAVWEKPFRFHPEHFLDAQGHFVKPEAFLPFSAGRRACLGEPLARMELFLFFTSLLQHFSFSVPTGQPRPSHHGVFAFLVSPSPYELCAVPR

[11] = biological target: T6, Muscarinic acetylcholine receptor M5 (Homo sapiens) (UniProt P08912); test: Positive allosteric modulation of human M5 receptor expressed in CHOK1 cells by calcium mobilization assay; format: functional, cell-based; conditions: CHO-K1
T6 sequence (whole entry): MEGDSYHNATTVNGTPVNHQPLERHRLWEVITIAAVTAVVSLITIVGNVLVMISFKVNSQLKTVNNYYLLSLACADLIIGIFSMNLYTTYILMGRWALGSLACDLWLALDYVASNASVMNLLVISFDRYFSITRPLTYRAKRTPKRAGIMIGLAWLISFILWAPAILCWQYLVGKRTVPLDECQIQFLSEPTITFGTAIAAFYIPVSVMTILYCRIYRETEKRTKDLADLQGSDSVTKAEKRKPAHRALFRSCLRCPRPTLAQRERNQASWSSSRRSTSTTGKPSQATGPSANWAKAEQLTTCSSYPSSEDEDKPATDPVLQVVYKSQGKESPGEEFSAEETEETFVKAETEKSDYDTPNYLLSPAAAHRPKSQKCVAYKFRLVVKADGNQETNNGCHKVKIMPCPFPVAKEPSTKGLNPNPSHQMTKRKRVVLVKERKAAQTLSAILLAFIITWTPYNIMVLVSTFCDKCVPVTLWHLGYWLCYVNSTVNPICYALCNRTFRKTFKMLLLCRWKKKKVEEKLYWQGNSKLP

Cc1sc2ncnc(N3CCC(C(=O)Nc4ccc(S(N)(=O)=O)cc4)CC3)c2c1C
fraction unbound [1]: 0.002
%max [2]: 71%
IC50 [3]: 5800 nM
IC50 [4]: > 20000 nM
IC50 [5]: > 20000 nM
%max [6]: 76%
EC50 ([7]; read-out: EC50): 410 nM
EC50 ([7]; read-out: pEC50 (converted)): 1200 nM
EC50 [8]: 160 nM
fraction unbound [9]: 0.01
IC50 [10]: 3400 nM
Activity [11]: inactive
